Experimental data as given in patent publication US20110173718A1, “HERBICIDE TOLERANT PLANTS” (SYNGENTA CROP PROTECTION, INC., priority 2008, published 2011).
“And” between values parts separate entries of the source, which are not always exact repeats. Equal values may be shown once. Read-outs that look alike come from different tables or passages of the source.

Assays:
[1] = test system: weeds; test: Glasshouse weed control, HST inhibitors alone and with A22, post-emergence; type: in vivo; settings: 336 h, 14 DAT, single replicate, read-out: % control score, Obs; for pest or weed control at 15.625 g/ha: 15.625 g/ha alone; for pest or weed control at 62.5 g/ha: 62.5 g/ha alone; for pest or weed control at 250 g/ha: 250 g/ha alone
How it was run: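 Weeds grown in glasshouse trays (24-27 C day, 18-21 C night, ~15 h photoperiod) and track-sprayed in 0.2% X77 at […], pre-emergence or post-emergence at about 7-12 d. HPPD inhibitor A22 applied at 2 g/ha alone or mixed with HST herbicides. Damage scored 0–100% at 14 DAT; synergy calculated by Colby formula.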

[2] = test system: wild-type (WT) Samsun tobacco; test: Glasshouse spray test, wild-type tobacco; type: in vivo; settings: for % damage observed 16 DAT: w/t tobacco; for percent damage at 6 DAT / blch (% bleaching at the meristem relative to control plants) / ht (% height reduction relative to control plants): WT; for blch (% bleaching at the meristem relative to control plants) / ht (% height reduction relative to control plants): 100 g; for % damage at 7 DAT: WT Samsun, individual plants
How it was run: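 Wild-type Samsun tobacco grown from seed was planted in 3 inch pots, grown on under glasshouse conditions (about 24-27° C. day, 18-21° C. night, ~14 h photoperiod, ~65% humidity) and spray-treated alongside transgenic lines. Test chemicals were formulated in water with 0.2% X77 surfactant and applied by track sprayer at 200 l/ha. Height reduction, bleaching and damage were scored against unsprayed control plants of like size.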

[3] = 17 DAT, Chlamydomonas HST section
[4] = WT tobacco, spray with 500 g of compound 2.30, 7 DAT
[5] = WT tobacco, spray with 500 g of compound 2.30, 17 DAT
[6] = WT tobacco, spray with 40 g of compound 1.1, 7 DAT
[7] = WT tobacco, spray with 40 g of compound 1.1, 14 DAT

With `O=c1c(-c2cc(C(F)(F)F)ccc2Cl)c(O)c2nccnc2n1CC(F)F` [Compound 2.9] the pest or weed control at 15.625 g/ha ([1]; BRAPL) was 15%, the pest or weed control at 62.5 g/ha ([1]; BRAPL) was 55% and the pest or weed control at 250 g/ha ([1]; BRAPL) was 70%. It also gave a pest or weed control at 15.625 g/ha ([1]; PANMI) of 30%, a pest or weed control at 62.5 g/ha ([1]; PANMI) of 50% and a pest or weed control at 250 g/ha ([1]; PANMI) of 70%. It also gave a pest or weed control at 15.625 g/ha ([1]; SIDSP) of 10%, a pest or weed control at 62.5 g/ha ([1]; SIDSP) of 20% and a pest or weed control at 250 g/ha ([1]; SIDSP) of 20%. The pest or weed control at 15.625 g/ha ([1]; Digitaria sanguinalis, DIGSA) was 2%, the pest or weed control at 62.5 g/ha ([1]; Digitaria sanguinalis, DIGSA) was 10% and the pest or weed control at 250 g/ha ([1]; Digitaria sanguinalis, DIGSA) was 15%. The pest or weed control at 15.625 g/ha ([1]; Echinochloa crus-galli, ECHCG) was 20%, the pest or weed control at 62.5 g/ha ([1]; Echinochloa crus-galli, ECHCG) was 40% and the pest or weed control at 250 g/ha ([1]; Echinochloa crus-galli, ECHCG) was 70%. It also gave a pest or weed control at 15.625 g/ha ([1]; Setaria faberi, SETFA) of 20%, a pest or weed control at 62.5 g/ha ([1]; Setaria faberi, SETFA) of 50% and a pest or weed control at 250 g/ha ([1]; Setaria faberi, SETFA) of 65%.

In the case of `CS(=O)(=O)c1ccc(C(=O)C2C(=O)CCCC2=O)c([N+](=O)[O-])c1` [Mesotrione, mesotrione, reference compound], the “Damage % 5 DAT” value ([2]; 10 g/ha, 5 DAT, wt plants) is reported as 55% and 50% and 60%, the “% damage observed 16 DAT” value ([2]; 37 g/ha) is reported as 66% and the “percent damage at 6 DAT” value ([2]; 100 g/ha, reps) is reported as 80% and 70%. For the same compound, the “% damage observed 16 DAT” value ([2]; 111 g/ha) was 57%, the “% damage observed 16 DAT” value ([2]; 333 g/ha) was 57% and the “% damage observed 16 DAT” value ([2]; 1000 g/ha) was 54%. The “ht (herbicidal damage)” value ([2]; WT tobacco, 15 g/ha of mesotrione, 21 DAT) was 90 and 85 and 75.

`CC(C)C(=O)Oc1c(-c2c(F)ccc(Br)c2Cl)c(=O)n(CC(F)F)c2nccnc12` [Compound 2.30] was tested, and the “blch (% bleaching at the meristem relative to control plants)” value ([2]; 7 DAT, Arabidopsis HST section) was 85% and 70% and 75% and 80%, the “ht (% height reduction relative to control plants)” value ([2]; 7 DAT, Arabidopsis HST section) was 80% and 85% and 75% and the “blch (% bleaching at the meristem relative to control plants)” value ([2]; 7 DAT, wheat HPPD section) was 85% and 70% and 75% and 80%. For the same compound, the “ht (% height reduction relative to control plants)” value ([2]; 7 DAT, wheat HPPD section) was 80% and 85% and 75%, the “blch (% bleaching at the meristem relative to control plants)” value [2, 3] was 85% and 70% and 75% and 80% and the “ht (% height reduction relative to control plants)” value [2, 3] was 80% and 85% and 75%. The “ht (% height reduction relative to control plants)” value ([2]; 21 DAT, wheat HPPD section) was 95% and 90% and 75% and 80%, the “ht (% height reduction relative to control plants)” value ([2]; 26 DAT, Arabidopsis HST section) was 95% and 90% and 75% and 80% and the “ht (% height reduction relative to control plants)” value ([2]; 26 DAT, Chlamydomonas HST section) was 95% and 90% and 75% and 80%. The “percent damage at 6 DAT” value ([2]; 150 g/ha, reps) was 70%, the “% damage at 7 DAT” value ([2]; 150 gai/ha) was 75% and 80% and 85% and the “% damage at 7 DAT” value ([2]; 300 gai/ha) was 75% and 70% and 80%. The “% damage at 7 DAT” value ([2]; 450 gai/ha) was 70% (2×) and 75%, the herbicide % damage ([2]; Compound 2.30, 150 g/ha, 14 DAT, WT control, reps) was 60% and 70% and 75% and the “blch: % bleaching at the meristem relative to control plants” value [2, 4] was 70% and 75% and 80%. The “ht: % height reduction relative to control plants” value [2, 4] was 85% and 90%, the “blch: % bleaching at the meristem relative to control plants” value [2, 5] was 80% and 70% and 75% and the “ht: % height reduction relative to control plants” value [2, 5] was 90% and 85%. For the same compound, the “ht: % height reduction relative to control plants” value ([2]; WT tobacco, spray with 500 g of compound 2.30, 26 DAT) was 70% and 85% and 100% and 90% and 80%.

For `Oc1c(Cl)c(F)nc(F)c1Cl` [Compound 1.1, haloxydine], the “% damage at 7 DAT” value ([2]; 25 gai/ha) was 75%, the “% damaged” value ([2]; 250 g/ha, 8 DAT, w/t plants, 4-5 leaf) was 55% and 65% and the “% damage” value ([2]; 250 g/ha, 25 DAT, w/t plants) was 50-70%. The “blch: % bleaching at the meristem relative to control plants” value [2, 6] was 70% and 65% and 60% and 75% and 80%, the “ht: % height reduction relative to control plants” value [2, 6] was 60% and 65% and 75% and 70% and the “blch: % bleaching at the meristem relative to control plants” value [2, 7] was 40% and 70% and 60% and 75% and 65%. For the same compound, the “ht: % height reduction relative to control plants” value [2, 7] was 60% and 70% and 75% and 65% and the “ht: % height reduction relative to control plants” value ([2]; WT tobacco, spray with 40 g of compound 1.1, 21 DAT) was 70% and 80% and 85% and 60% and 55% and 65%.
